Measurements as given in ChEMBL document CHEMBL3352111, “Cytotoxic activity of butane type of 1,7-seco-2,7'-cyclolignanes and apoptosis induction by Caspase 9 and 3” (Bioorg Med Chem Lett, 2014).
Active and inactive are the calls of the source. The rule behind the calls is not given here.

Key:
[1] = system: HeLa; assay: Cytotoxicity against human HeLa cells after 48 hrs by WST8 assay; format: functional, cell-based
[2] = Cytotoxicity against human HL60 cells after 48 hrs by WST8 assay; format: functional, cell-based; conditions: HL-60, 48 h
[3] = system: HeLa; assay: Cytotoxicity against human HeLa cells assessed as inhibition of cell growth at 100 uM after 48 hrs by WST8 assay; format: functional; conditions: read-out: GI
[4] = Cytotoxicity against human HL60 cells assessed as inhibition of cell growth at 100 uM after 48 hrs by WST8 assay; format: functional; conditions: HL-60, 48 h, read-out: GI
[5] = system: HL-60; assay: Induction of apoptosis in human HL60 cells assessed as reduction in pro-caspase-9 level at 8 uM after 24 hrs by Western blotting method; format: functional, cell-based
[6] = system: HL-60; assay: Induction of apoptosis in human HL60 cells assessed as late apoptosis level at 8 uM after 24 hrs by Annexin V-PE and 7-AAD staining based flow cytometry (reference value: 3.2%); format: functional
[7] = system: HL-60; assay: Induction of apoptosis in human HL60 cells assessed as increase in caspase-9 level at 8 uM after 12 hrs by Western blotting method; format: functional, cell-based
[8] = system: HL-60; assay: Induction of apoptosis in human HL60 cells assessed as increase in DNA fragmentation at 25 uM after 4 hrs by ethidium bromide staining and gel electrophoresis based DNA ladder analysis; format: functional, cell-based
[9] = system: HL-60; assay: Induction of apoptosis in human HL60 cells assessed as early apoptosis level at 8 uM after 24 hrs by Annexin V-PE and 7-AAD staining based flow cytometry (reference value: 3.3%); format: functional
[10] = system: HL-60; assay: Induction of apoptosis in human HL60 cells assessed as increase in caspase-3 level at 8 uM after 24 hrs by Western blotting method; format: functional, cell-based
[11] = system: HL-60; assay: Induction of apoptosis in human HL60 cells assessed as late apoptosis level at 0.2 uM after 24 hrs by Annexin V-PE and 7-AAD staining based flow cytometry (reference value: 3.3%); format: functional

Structure (SMILES)	IC50 [1] [µM]	IC50 [2] [µM]	inhibition of growth at 100 µM [3] [%]	inhibition of growth at 100 µM [4] [%]	further results
COC[C@H](C)[C@@H](C)C(c1ccc(O)c(OC)c1)c1ccc(O)c(OC)c1	77	68	–	–	–
COc1cc(C(c2ccc(O)c(OC)c2)[C@H](C)[C@H](C)CO)ccc1O	> 100	> 100	0	23	–
COc1cc(C(c2ccc(O)c(OC)c2)[C@@H](C)C(C)C)ccc1O	19	20	–	–	–
COC[C@@H](C(C)C)C(c1ccc(O)c(OC)c1)c1ccc(O)c(OC)c1	69	54	–	–	–
COC[C@@H](C)[C@H](C)C(c1ccc(O)c(OC)c1)c1ccc(O)c(OC)c1	58	73	–	–	–
COc1cc(C(c2ccc(O)c(OC)c2)[C@@H](CF)C(C)C)ccc1O	41	39	–	–	–
COc1cc(C(c2ccc(O)c(OC)c2)[C@@H](C)[C@H](C)CO)ccc1O	> 100	> 100	7	0	–
COc1cc(C(c2ccc(O)c(OC)c2)[C@@H](C)[C@@H](C)CF)ccc1O	42	38	–	–	–
COc1cc(C(c2ccc(O)c(OC)c2)[C@H](CO)C(C)C)ccc1O	> 100	> 100	3	10	–
CCCCC[C@H](C(C)C)C(c1ccc(O)c(OC)c1)c1ccc(O)c(OC)c1	9.2	9.6	–	–	–
COc1ccc(C(c2ccc(OC)c(OC)c2)[C@@H](C)[C@H](C)CO)cc1OC	> 100	> 100	0	0	–
COc1cc(C(c2ccc(O)c(OC)c2)[C@H](C)[C@@H](C)CF)ccc1O	34	45	–	–	–
CCCCCCCC[C@H](C(C)C)C(c1ccc(O)c(OC)c1)c1ccc(O)c(OC)c1	3.1	3.7	–	–	Activity [5]: Active; Activity [6]: 33.1%; Activity [7]: Active; Activity [8]: Active; Activity [9]: 13.5%; Activity [10]: Active
COC[C@H](C)[C@H](C)C(c1ccc(O)c(OC)c1)c1ccc(O)c(OC)c1	72	82	–	–	–
COC[C@H](C(C)C)C(c1ccc(O)c(OC)c1)c1ccc(O)c(OC)c1	76	72	–	–	–
COc1cc(C(c2ccc(O)c(OC)c2)[C@H](CC(C)C)C(C)C)ccc1O	8.2	9.6	–	–	–
COc1ccc(C(c2ccc(OC)c(OC)c2)[C@@H](C)[C@@H](C)CO)cc1OC	> 100	> 100	55	42	–
COC[C@@H](C)[C@@H](C)C(c1ccc(O)c(OC)c1)c1ccc(O)c(OC)c1	> 100	85	34	–	–
COc1cc(C(c2ccc(O)c(OC)c2)[C@H](CF)C(C)C)ccc1O	19	19	–	–	–
COc1cc(C(c2ccc(O)c(OC)c2)[C@@H](CO)C(C)C)ccc1O	> 100	> 100	2	18	–
COc1cc(C(c2ccc(O)c(OC)c2)[C@@H](C)[C@H](C)CF)ccc1O	37	32	–	–	–
COc1cc(C(c2ccc(O)c(OC)c2)[C@H](C)[C@H](C)CF)ccc1O	75	56	–	–	–
COc1ccc(C(c2ccc(OC)c(OC)c2)[C@H](C)[C@@H](C)CO)cc1OC	67	47	–	–	–
COc1cc(C(c2ccc(O)c(OC)c2)[C@@H](C)[C@@H](C)CO)ccc1O	> 100	> 100	8	3	–
CC[C@H](C(C)C)C(c1ccc(O)c(OC)c1)c1ccc(O)c(OC)c1	9.7	16	–	–	–
COc1cc(C(c2ccc(O)c(OC)c2)[C@H](C)[C@@H](C)CO)ccc1O	> 100	> 100	7	7	–
CN[C@@H]1C[C@H]2O[C@@](C)([C@@H]1OC)n1c3ccccc3c3c4c(c5c6ccccc6n2c5c31)C(=O)NC4 [STAUROSPORINE]	–	–	–	–	Activity [11]: 17.4%
COc1cc(C(c2ccc(O)c(OC)c2)[C@H](C)C(C)C)ccc1O	16	17	–	–	–
COc1ccc(C(c2ccc(OC)c(OC)c2)[C@H](C)[C@H](C)CO)cc1OC	> 100	> 100	13	28	–
